Tested on: cerebrospinal fluid glutamate level
Assay: Intracerebroventricular retrodialysis in rats with enzymatic chemiluminescent glutamate determination in microdialysates
Format: in vivo, Sprague-Dawley rats
Method: For this example, intracerebroventricular retrodialysis was performed on rats according to techniques known to those skilled in the art. The analysis of microdialysates was performed according to Israël and collaborators' publication (Neurochem Int 22(1): 53-58, 1993). Procedures are described below:
Surgery was performed on adult male Sprague-Dawley rats weighing 330-340g at the time of surgery. Following induction of anaesthesia with intraperitoneal administration of ketamine/xylazine, animals were secured in a stereotaxic frame in the flat-skull position at a constant setting of -3.3mm between ear and incisor bars. After defining the "stereotaxic zero" in accordance with Paxinos and Watson's atlas (1986), a microdialysis guide cannula was directed towards the right lateral ventricle with the coordinates from Bregma: anteroposterior -0.8mm, mediolateral +1.5mm, and dorsoventral (DV) -1.5mm (CMA12 probe: 2mm membrane) (Khandewal et al., J Neurosci Methods 133(1-2): 181-189, 2004).
The guide cannula was fixed to the skull using dental cement and three stainless steel screws. […]
Samples were subsequently analysed for glutamate determination using an enzymatic assay (Israël et al., 1993). The procedure is based on the oxidation of L-glutamate […] with subsequent NADH production, the NADH being continuously evaluated using the photobacterium chemiluminescent reaction at 460-490nm. […]

Q: How did the “response of cerebrospinal fluid glutamate level to the compound” value (rat C (one rat out of five), 30µM solution by retrodialysis for 40min) turn out when `NC(=O)NN=C1C=Cc2ccc(OCCN3CCOCC3)cc2C1=O` [Example 13, 7-(2-morpholin-4-yl-ethoxy) naphtalene-1,2-dione2-semicarbazone] was run?
A: Its value is “did not response”.

Q: And the “decrease of the cerebrospinal fluid glutamate level” value (rats A, B, D and E (four of five), 30µM solution by retrodialysis for 40min into right lateral ventricle, after 80 minutes, relative to baseline set at 100%)?
A: The value was “up to 50%”.
